Assay results reported in US9737525B2, “Small molecule activators of NRF2 pathway” (The General Hospital Corporation, priority 2013, dated 2017).

Legend:
NRF2 responsive genes = assay: Microarray gene expression profiling in mutant HTT ST14A cells (Case III); assay type: cell-based, rat; details: 5 μM 24 hours vs untreated
Protocol: RNA was extracted from HD mutant and wild type ST14A cells, differentiated for 24 hours and treated with vehicle (DMSO) or with 5 μM MIND4, using the RNeasy kit (Qiagen). Labeled cRNAs were prepared and hybridized to Affymetrix GeneChip Rat Genome 230 2.0 microarrays according to the manufacturer's instructions. Affymetrix CEL (intensity) files from hybridized arrays were imported into the Partek Genome Suite, Partek Incorporated, for biostatistical analysis. 2 CEL files were used for each experimental condition: wild type (WT) untreated, MIND4 treated (WT/MIND4), mutant (MTT) untreated, and mutant (MTT) MIND4-terated (MTT/MIND4). Two-way ANOVA was performed with interaction term included and three of the evaluated contrasts were of interest (Case I, II, and III). Gene lists were created for each of the three contrasts using the thresholds of absolute value of fold-change>1.5 and p-value with False Discovery Rate (FDR)<0.05. The lengths of the gene lists are for Case I (DP)-1765 genes, for Case II (TP)-1797 genes, and for Case III (MDDP)-268 genes. These three gene lists were imported into Ingenuity IPA for pathway and network analyses. These analyses provided Networks (graph structures of molecules connected by relationships in the IPA knowledgebase), Functions (lists of molecules grouped together due to their contribution to a biological function) and Canonical Pathways (molecules and relationships that participate in a biological pathway). Scores are assigned according to the probability that the genes from the user's list might appear in the function or pathway by chance (right-tailed Fisher's Exact Test).
To determine whether MIND4 might engage targets other than SIRT2, the gene expression changes in treated versus untreated mutant HTT and wild type ST14A cells were evaluated using an approach described previously (Luthi-Carter et al., 2010). RNA from rat embryonic striatal (ST14A) cells stably expressing a 546 amino acid HTT fragment containing either an expanded (128Q) or wild type (26Q) repeat was extracted following treatment with 5 μM MIND4 for 24 hours was extracted and run on Affymetrix rat microarrays (Affy GeneChip Rat Genome 230 2.0 array) as described above in General Methods. Two replicates for each of the experimental conditions were imported into Partek Genome Suite for biostatistical analysis. Genes showing significant differential expression were identified by ANOVA, for three contrasts, resulting in three gene-lists: mutant HD (MT) vs. wild type (WT)=Case I (Disease Phenotype); MT/MIND4 treated vs. WT=Case II (Treatment Phenotype), and MT/MIND4 treated vs. MT=Case III (Mutant Drug-Dependent Phenotype). These represented transcriptional alterations in MT compared to WT cells (Case I), in MT treated compared to WT cells (Case II), and in MT treated cells compared to untreated MT cells (Case III). The lists, Cases I-III, were then imported into Ingenuity Pathway Analysis (IPA—Ingenuity® Systems, www.ingenuity.com) for pathway and network analyses.

[1] = system: α-tubulin (lysine K40) acetylation in ST14A cells; assay: α-Tubulin acetylation in differentiated ST14A cells; assay type: cell-based, rat; details: mutant HD and wild type ST14A cells, 6 hours
Protocol: Compound bioactivity was tested in the rat embryonic striatal cell lines ST14A, which stably express either a mutant expanded repeat (128Q) or wild type (26Q) 546 amino acid huntingtin (HTT) fragment (a generous gift of E. Cattaneo) (Ehrlich et al., 2001) ST14A cells were propagated at 33° C. in the presence of serum. To induce neuronal differentiation, cells were serum deprived and cultured at 37° C. in the presence of N2 supplement. […]
This increased α-tubulin acetylation in compound-treated cells was consistent with the activity of MIND4 as a SIRT2 inhibitor.

N9 microglial cells = assay: ROS/RNI assays in stimulated N9 microglial cells; assay type: cell-based; details: LPS- and TNFα-activated microglial cells, 20 hr
Protocol: N9 microglial cells were cultured in RPMI medium containing Glutamax (Invitrogen) and supplemented with 10% FBS (Endotoxin levels lower than 10 EU/ml). Cells were plated in 96 well plates (5×10^4 per well) and cultured overnight before stimulation with LPS (100 ng/ml) and TNFα (10 ng/ml) for 20 hr in medium supplemented with DMSO or with the tested compounds. ROS were detected by flow cytometry after microglia incubation with […] of 5-(and-6)-chloromethyl-2′,7′-dichlorodihydrofluorescein diacetate, acetyl ester (CM-H2DCFDA) (Invitrogen) for 20 min. The production of NO by iNOS was measured indirectly by assaying nitrites in the culture supernatant using the Griess reaction [Liu, 2013]. Briefly, […] of supernatants were incubated with equal amount of Griess reagent (1% sulphanilamide, 0.1% naphthylethylenediamine in 2% phosphoric acid solution) and the absorbance read at 550 nm after 20 min of incubation at room temperature.

EGFP-NRF2 = assay: Live-cell imaging of HEK293 cells expressing EGFP-NRF2 and KEAP1-mCherry; assay type: cell-based, human; details: 1 μM for 1 hr
Protocol: To examine the effect of MIND4-17 on the stabilization and sub-cellular localization of NRF2 in live cells, HEK293 cells (200,000 per dish) grown in α-MEM supplemented with 10% heat-inactivated FBS on 6-cm glass dishes, were co-transfected with constructs encoding EGFP-NRF2 and KEAP1-mCherry using Lipofectamine 2000 (Invitrogen) as described [Baird, 2013]. Cells were imaged 24 hr post-transfection before and after 1 hr-exposure to 1 μM MIND4-17. All images were acquired by confocal microscopy using a laser-scanning confocal microscope (LSM780; Carl Zeiss). The microscope was equipped with a thermostated chamber suitable to maintain the live cells and optics at constant 37° C. Imaging was performed using a 63× oil immersion NA 1.4 Plan-Apochromat objective from Zeiss.

iBMM macrophages = assay: Transcriptional responses in LPS-induced iBMM macrophages (qRT-PCR); assay type: cell-based, mouse; details: 24 hr
Protocol: Immortalized bone marrow derived mouse macrophages (iBMMs) and BV2 mouse microglia cell line were used in the present study. Both cell types were maintained in DMEM media supplemented with 10% FBS and antibiotic-antimycotic mix. Cells were seeded into 12 well plates at the density of 3×10^5 cells/well. Cells were treated with the indicated concentrations of MIND4-17 compounds for 24 hr. Cells were then stimulated with 10 ng/ml LPS (E. coli, Sigma) for 2 hr. Total RNA was isolated using ZR Miniprep kit (Zymo Research). […] of total RNA was used to prepare cDNA. Gene expression was analyzed using VeriQuest SYBR green assay (Affymetrix) in Roche480 thermocycler. Primer sequences are as described above (see Example 9).

## O=[N+]([O-])c1ccc(Sc2nnc(COc3ccccc3)n2-c2ccccc2)c2ncccc12 [MIND4, 5-nitro-8-{[5-(phenoxymethyl)-4-phenyl-4H-1,2,4-triazol-3-yl]thio}quinoline]
NRF2 responsive genes
  Fold Increase, AOX1: 3.18 fold
  Fold Increase, CAT: 1.72 fold
  Fold Increase, DNAJA4: 1.53 fold
  Fold Increase, DNAJB9: 1.63 fold
  Fold Increase, FRA1: 3.17 fold
  Fold Increase, GCLC: 2.11 fold
  Fold Increase, GCLM: 3.32 fold
  Fold Increase, GSR: 2.14 fold
  Fold Increase, GSTA3: 20.09 fold
  Fold Increase, GSTM5: 1.89 fold
  Fold Increase, GSTP1: 2.21 fold
  Fold Increase, GSTT2/GSTT2B: 1.96 fold
  Fold Increase, HERPUD1: 1.55 fold
  Fold Increase, HO-1: 6.14 fold
  Fold Increase, KEAP1: 1.53 fold
  Fold Increase, MAFF: 1.75 fold
  Fold Increase, MGST1: 1.84 fold
  Fold Increase, MGST2: 2.94 fold
  Fold Increase, MRP4: 3.37 fold
  Fold Increase, NQO1: 7.34 fold
  Fold Increase, SQSTM1: 1.82 fold
  Fold Increase, TRXR1: 3.31 fold
[1]
  Acetylation of α-tubulin (lysine K40): dose dependent increase in acetylation of α-tubulin
N9 microglial cells
  Production of RNI (nitrites in supernatants): reduced the production of RNI
  ROS levels: reduced ROS levels

## O=[N+]([O-])c1ccc(Sc2nnc(COc3ccccc3)n2-c2ccccc2)nc1 [MIND4-17]
EGFP-NRF2
  Stabilization and sub-cellular localization of NRF2: stabilization and nuclear translocation of EGFP-NRF2
iBMM macrophages
  Expression of inflammatory factors TNFα, IL-6, IL-1β and MCP-1: repressed expression of inflammatory factors
  Transcription of GCLM and NQO1: increased transcription of GCLM and NQO1
N9 microglial cells
  Production of RNI (nitrites in supernatants): reduced the production of RNI
  ROS levels: reduced ROS levels
